PMC2848589, “Raltegravir Is a Potent Inhibitor of XMRV, a Virus Implicated in Prostate Cancer and Chronic Fatigue Syndrome” (PLoS ONE, 2010)
Where two headings read alike, the source gives them in different places.

Tests used:
XMRV = XMRV replication in MCF-7 cells (viral release by RT activity in supernatant); format: cell-based; conditions: for EC50 / EC90: MCF7, 144 h; for EC50: read-out: XMRV in MCF-7 cells EC50; for EC90: read-out: XMRV in MCF-7 cells EC90; for activity against XMRV (in words): tested up to 100 µM, Figure 1
HIV-1LAI = experiment: HIV-1 replication in PHA-stimulated peripheral blood mononuclear cells; format: cell-based; conditions: Human immunodeficiency virus 1, PBMC; for EC50: read-out: HIV-1 in PBM cells EC50; for EC90: read-out: HIV-1 in PBM cells EC90
Protocol: (§1) We tested a total of 45 compounds belonging to different classes of HIV-1 inhibitors, and a few inhibitors of viruses other than retroviruses, for their ability to inhibit XMRV replication in cultured cells. LNCaP and MCF-7 cells were chosen for their ability to support robust in vitro replication of XMRV. […] To determine if a reduction in viral release might be due to toxicity of the compound and not due to specific antiretroviral activity, cellular morphology was monitored every 24 h by microscopic examination, and an MTT [3-(4,5-dimethylthiazol-2-yl)-2,5-diphenyltetrazolium bromide] colorimetric assay was used to measure potential cytotoxicity produced by the compounds. Supernatants were collected every 24 h and assayed for viral release by measuring RT activity. […] For comparison purposes, all compounds evaluated in these studies were also tested against HIV-1LAI in primary human lymphocytes.
(§2) Each well was carefully monitored for signs of cellular toxicity due to the inhibitors by microscopic observation every 24 h. In addition, cell viability was measured using the CellTiter 96 AQueous One Solution cell proliferation assay according to the manufacturer (Promega, Madison, Wis). Viral release from the cells was assayed by measuring RT activity in the supernatant. For this, supernatant from each well was collected every 24 h and frozen at −20°C until it was analyzed by RT assay for viral release as described previously. In brief, oligo(dT)·poly(rA) primer-template assays were performed in the presence of radiolabeled [α-^32P]dTTP and Mn^2+. After incubating the viral supernatants with the RT reaction mix for 1 h at 37°C, samples were spotted onto DE81 DEAE cellulose paper (Whatman) and unincorporated label washed away with 2× SSC (1× SSC = 0.15 M NaCl and 0.015 M sodium citrate). […] Inhibition of viral release as measured on day 6 after inoculation was averaged over 3–5 experiments and plotted. The antiviral EC50 and cytotoxic concentrations (CC50,) was determined from the concentration–response curve using the median effect method. HIV-1 replication assays were performed as described previously using peripheral blood mononuclear cells (PBMC) obtained from the American Red Cross, Atlanta, GA, that were stimulated with phytohemagglutinin (PHA) for 72 hr.

[1] = Cytotoxicity in PBM cells; format: cell-based; conditions: human, read-out: HIV-1 in PBM cells CC50
Protocol: as §2

[2] = Cytotoxicity in MCF-7 cells (MTT / CellTiter 96 AQueous One); format: cell-based, human; conditions: human
Protocol: as §1, §2

[3] = peripheral blood mononuclear (PBM) cells
[4] = MCF-7 cells, read-out: XMRV in MCF-7 cells CC50
[5] = XMRV-infected MCF-7 cells, RT activity in supernatant, day 6

SMILES | EC50 (XMRV) | EC90 (XMRV) | activity against XMRV (in words) (XMRV) | EC50 (HIV-1LAI) | EC90 (HIV-1LAI) | CC50 [1, 3] | CC50 [2] | therapeutic index (TI, the ratio of CC50/EC50) (XMRV; XMRV, MCF-7 cells) | CC50 [2, 4] | EC50 (XMRV; [5]) | CC50 [1]
Nc1ccn([C@@H]2CS[C@H](CO)O2)c(=O)n1 [Lamivudine (3TC), Lamivudine] | > 100 µM | > 100 µM | essentially inactive | 0.085 µM | 0.36 µM | 41.9 µM | > 100 µM |  |  |  | 
O=c1[nH]c(=O)n([C@H]2C[C@H](O)[C@@H](CO)O2)cc1I [5-Iodo-2'-deoxyuridine (IdUrd), 5-Iodo-2'-deoxyuridine] | 2.2 µM | > 100 µM |  | 25.1 µM | 38.9 µM | 85.1 µM | 7.3 µM | low |  |  | 
CC(C)CN(C[C@@H](O)[C@H](Cc1ccccc1)NC(=O)O[C@H]1CO[C@H]2OCC[C@H]21)S(=O)(=O)c1ccc(N)cc1 [Darunavir] | > 100 µM | > 100 µM | essentially ineffective | 0.0036 µM | 0.0065 µM |  |  |  |  |  | 
NC(=O)c1ncn([C@@H]2O[C@H](CO)[C@@H](O)[C@H]2O)n1 [Ribavirin (RBV), Ribavirin] | 53 µM | > 100 µM |  | 6.4 µM | > 100 µM | > 100 µM | 74.1 µM |  |  |  | 
Nc1ccn([C@H]2CC[C@@H](CO)O2)c(=O)n1 [Zalcitabine (ddC), Zalcitabine] | > 100 µM | > 100 µM |  | 0.044 µM | 0.31 µM | > 100 µM | 89.8 µM |  |  |  | 
O=C1Nc2ccc(Cl)cc2[C@@](C#CC2CC2)(C(F)(F)F)O1 [Efavirenz] | 51.6 µM | 93 µM | did not demonstrate any major activity | 0.00073 µM | 0.0027 µM | 18.4 µM |  |  | 60.4 µM |  | 
Nc1nc2c(ncn2COCCO)c(=O)[nH]1 [Acyclovir (ACV), Acyclovir] | > 100 µM | > 100 µM |  | > 100 µM | > 100 µM | > 100 µM | 77.6 µM |  |  |  | 
Cc1cccc(C)c1OCC(=O)N[C@@H](Cc1ccccc1)[C@@H](O)C[C@H](Cc1ccccc1)NC(=O)[C@H](C(C)C)N1CCCNC1=O [Lopinavir] |  | > 100 µM |  | 0.011 µM | 0.029 µM | 36 µM | 8.5 µM |  |  | 72.2 µM | 
Nc1nc(O)c2ncn(COC(CO)CO)c2n1 [Ganciclovir (GCV), Ganciclovir] | > 100 µM | > 100 µM |  | > 100 µM | > 100 µM | > 100 µM | > 100 µM |  |  |  | 
O=C(O)P(=O)(O)O [Foscarnet (PFA), Foscarnet] | 41.9 µM | > 100 µM |  | 26.9 µM | 71.9 µM | > 100 µM |  |  | > 100 µM |  | 
C[C@]12CC[C@H](O)CC1=CC[C@@H]1[C@@H]2CC[C@]2(C)C(=O)CC[C@@H]12 [Dehydroepiandrosterone (DHEA), Dehydroepiandrosterone] | 68.6 µM | > 100 µM |  | 15.1 µM | 71.2 µM |  |  |  | 64.1 µM |  | > 100 µM
CC(C)(C)NC(=O)[C@@H]1CN(Cc2cccnc2)CCN1C[C@@H](O)C[C@@H](Cc1ccccc1)C(=O)N[C@H]1c2ccccc2C[C@H]1O [Indinavir] | > 100 µM | > 100 µM | essentially ineffective | 0.018 µM | 0.064 µM | > 100 µM | 69.9 µM |  |  |  | 
Nc1ncnc2c1ncn2[C@@H]1O[C@H](CO)[C@@H](O)[C@@H]1O [Vidarabine (ara-A), Vidarabine] | 4.4 µM | > 100 µM |  | 30.6 µM | > 100 µM | > 100 µM | 50.5 µM |  |  |  | 
Cc1c(O)cccc1C(=O)N[C@@H](CSc1ccccc1)[C@H](O)CN1C[C@H]2CCCC[C@H]2C[C@H]1C(=O)NC(C)(C)C [Nelfinavir] |  | > 100 µM |  | 0.018 µM | 0.067 µM | 73.8 µM | 7.4 µM |  |  | 34.3 µM | 
C[C@H](Cn1cnc2c(N)ncnc21)OCP(=O)(O)O [Tenofovir (TNV), Tenofovir] | 82.9 µM | > 100 µM | ineffective | 0.88 µM | 6.6 µM | > 100 µM |  |  | 79.6 µM |  | 
CC(C)=CCN1Cc2c(Cl)ccc3[nH]c(=S)n(c23)C[C@@H]1C [TIBO analog, (4S)-8-Chloro-4-methyl-5-(3-methylbut-2-enyl)-3,4,5,6-tetrahydro-1H-[1], [3]diazepino[4,5,6-cd]indole-2(2aH)-thione] |  |  | did not demonstrate any major activity |  |  |  |  |  |  |  | 
CC(O)(CS(=O)(=O)c1ccc(F)cc1)C(=O)Nc1ccc(C#N)c(C(F)(F)F)c1 (centres unmarked) [Bicalutamide] | 53 µM | 63.2 µM |  |  |  |  | 8.2 µM |  |  |  | 
Cc1cn([C@@H]2C[C@@H](O)[C@H](CO)O2)c(=O)[nH]c1=O [Telbivudine (LdT), Telbivudine] | > 100 µM | > 100 µM |  | > 100 µM | > 100 µM | > 100 µM | 88.3 µM |  |  |  | 
CC(C)CN(C[C@@H](O)[C@H](Cc1ccccc1)NC(=O)O[C@H]1CCOC1)S(=O)(=O)c1ccc(N)cc1 [Amprenavir] |  | > 100 µM |  | 0.027 µM | 0.1 µM | > 100 µM |  |  | 94.1 µM | 68 µM | 
CC(=O)Oc1ccccc1C(=O)O [Aspirin] | > 100 µM | > 100 µM |  | > 100 µM | > 100 µM | > 100 µM |  |  | 92.2 µM |  | 
CC(C)c1nc(CN(C)C(=O)N[C@H](C(=O)N[C@@H](Cc2ccccc2)C[C@H](O)[C@H](Cc2ccccc2)NC(=O)OCc2cncs2)C(C)C)cs1 [Ritonavir] |  | > 100 µM |  | 0.15 µM | 0.4 µM |  |  |  |  | 76.4 µM | 
CCC[C@@]1(CCc2ccccc2)CC(O)=C([C@H](CC)c2cccc(NS(=O)(=O)c3ccc(C(F)(F)F)cn3)c2)C(=O)O1 [Tipranavir] | > 100 µM | > 100 µM | essentially ineffective | 0.035 µM | 0.17 µM | > 100 µM |  |  | 75.6 µM |  | 
CN(C)c1ccc2nc3ccc(=[N+](C)C)cc-3sc2c1 [Methylene blue] | 0.42 µM | 2.7 µM |  | 0.024 µM | 0.5 µM | 6.1 µM | 7.2 µM |  |  |  | 
C=C1[C@H](CO)[C@@H](O)C[C@@H]1n1cnc2c(=O)[nH]c(N)nc21 [Entecavir (ETV), Entecavir] | > 100 µM | > 100 µM |  | 2.1 µM | 16.3 µM | 25.2 µM | 93.3 µM |  |  |  | 
O=c1[nH]cnc2c1ncn2[C@H]1CC[C@@H](CO)O1 [Videx (DDI), Videx] | > 100 µM | > 100 µM | essentially inactive | 0.29 µM | 2.2 µM | > 100 µM | > 100 µM |  |  |  | 
Nc1nc(=O)n([C@@H]2CS[C@H](CO)O2)cc1F [Emtricitabine [(-)-FTC], Emtricitabine] | > 100 µM | > 100 µM | essentially inactive | 0.0066 µM | 0.052 µM | > 100 µM | > 100 µM |  |  |  | 
Nc1nc(N)c2ncn([C@H]3CO[C@@H](CO)O3)c2n1 [Amdoxovir (DAPD, AMDX), Amdoxovir] | > 100 µM | > 100 µM | essentially inactive | 0.83 µM | 4.8 µM | > 100 µM |  |  | > 100 µM |  | 
COC(=O)N[C@H](C(=O)N[C@@H](Cc1ccccc1)[C@@H](O)CN(Cc1ccc(-c2ccccn2)cc1)NC(=O)[C@@H](NC(=O)OC)C(C)(C)C)C(C)(C)C [Atazanavir] |  | > 100 µM |  | 0.0067 µM | 0.022 µM | 27.2 µM |  |  | 40.7 µM | 64.8 µM | 
CCN(CC)CCCC(C)Nc1ccnc2cc(Cl)ccc12 (centres unmarked) [Chloroquine] | 56.9 µM | > 100 µM |  | 9 µM | 21.6 µM |  |  |  |  |  | 
